Drawing on ChEMBL document CHEMBL1275601, “Striking species difference in the contribution of concentrative nucleoside transporter 2 to nucleoside uptake between mouse and rat hepatocytes” (Antimicrob Agents Chemother, 2010), this text covers Activity for 2 molecules.

Common to all, as to type: cell-based
The target in test [1] is T1, Equilibrative nucleoside transporter 1 (Rattus norvegicus) (UniProt O54698).
T1 sequence (whole entry): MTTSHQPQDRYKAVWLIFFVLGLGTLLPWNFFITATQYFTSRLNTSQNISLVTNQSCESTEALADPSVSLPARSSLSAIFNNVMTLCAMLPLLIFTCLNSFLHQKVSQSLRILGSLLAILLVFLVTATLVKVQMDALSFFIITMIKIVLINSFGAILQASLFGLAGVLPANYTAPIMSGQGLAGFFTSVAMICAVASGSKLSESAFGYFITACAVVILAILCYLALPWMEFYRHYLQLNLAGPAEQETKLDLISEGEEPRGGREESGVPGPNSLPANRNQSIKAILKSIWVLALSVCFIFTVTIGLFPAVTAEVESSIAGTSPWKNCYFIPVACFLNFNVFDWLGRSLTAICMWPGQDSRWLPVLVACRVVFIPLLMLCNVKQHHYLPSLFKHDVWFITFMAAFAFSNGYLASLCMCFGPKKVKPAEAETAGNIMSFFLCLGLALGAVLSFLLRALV
Nature of the test: Transport through ENT1 in rat hepatocytes by oil filtration assay. The following applies: Hepatocyte.

For test [2], the system named is Hepatocyte. Nature of the test: Transport through CNT3 in mouse hepatocytes by oil filtration assay in presence of sodium ions in Kreb-henseleit buffer.
The subject of test [3] is Hepatocyte. Nature of the test: Transport through CNT3 in rat hepatocytes by oil filtration assay.
Test [4] has as its target T1, Equilibrative nucleoside transporter 1 (Rattus norvegicus). Nature of the test: Transport through ENT1 in rat hepatocytes by oil filtration assay in presence of sodium ions in Kreb-henseleit buffer containing 100 uM NBMPR and 1 mM uridine. As to conditions: Hepatocyte.
For test [5], the system named is Hepatocyte. Nature of the test: Transport through CNT3 in rat hepatocytes by oil filtration assay in presence of sodium ions in Kreb-henseleit buffer containing 100 uM NBMPR and 1 mM inosine.
The target in test [6] is T2, Sodium/nucleoside cotransporter 2 (Rattus norvegicus) (UniProt Q62773).
T2 sequence (whole entry): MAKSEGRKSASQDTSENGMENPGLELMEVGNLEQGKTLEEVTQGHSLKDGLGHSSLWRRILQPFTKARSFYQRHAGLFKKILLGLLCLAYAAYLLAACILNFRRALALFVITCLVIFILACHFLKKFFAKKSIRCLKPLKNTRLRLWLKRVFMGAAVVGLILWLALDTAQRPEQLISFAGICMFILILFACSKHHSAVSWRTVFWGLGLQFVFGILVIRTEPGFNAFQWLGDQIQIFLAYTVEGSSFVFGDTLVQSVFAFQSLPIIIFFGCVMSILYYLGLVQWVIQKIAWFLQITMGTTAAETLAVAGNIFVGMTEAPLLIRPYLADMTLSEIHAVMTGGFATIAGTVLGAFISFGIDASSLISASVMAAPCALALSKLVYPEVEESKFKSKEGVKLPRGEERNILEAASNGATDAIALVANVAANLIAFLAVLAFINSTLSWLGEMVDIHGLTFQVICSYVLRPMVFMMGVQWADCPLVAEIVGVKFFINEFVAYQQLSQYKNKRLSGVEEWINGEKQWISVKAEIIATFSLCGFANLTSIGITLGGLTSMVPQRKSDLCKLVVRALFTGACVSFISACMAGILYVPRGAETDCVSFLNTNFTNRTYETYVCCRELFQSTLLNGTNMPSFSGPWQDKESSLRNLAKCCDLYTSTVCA
Nature of the test: Transport through CNT2 in rat hepatocytes by oil filtration assay. As to conditions: Hepatocyte.

Test [7] deals with Hepatocyte. Nature of the test: Transport through CNT1 in mouse hepatocytes by oil filtration assay in presence of sodium ions in Kreb-henseleit buffer.
The target of test [8] is T3, Sodium/nucleoside cotransporter 1 (Rattus norvegicus) (UniProt Q62674).
T3 sequence (whole entry): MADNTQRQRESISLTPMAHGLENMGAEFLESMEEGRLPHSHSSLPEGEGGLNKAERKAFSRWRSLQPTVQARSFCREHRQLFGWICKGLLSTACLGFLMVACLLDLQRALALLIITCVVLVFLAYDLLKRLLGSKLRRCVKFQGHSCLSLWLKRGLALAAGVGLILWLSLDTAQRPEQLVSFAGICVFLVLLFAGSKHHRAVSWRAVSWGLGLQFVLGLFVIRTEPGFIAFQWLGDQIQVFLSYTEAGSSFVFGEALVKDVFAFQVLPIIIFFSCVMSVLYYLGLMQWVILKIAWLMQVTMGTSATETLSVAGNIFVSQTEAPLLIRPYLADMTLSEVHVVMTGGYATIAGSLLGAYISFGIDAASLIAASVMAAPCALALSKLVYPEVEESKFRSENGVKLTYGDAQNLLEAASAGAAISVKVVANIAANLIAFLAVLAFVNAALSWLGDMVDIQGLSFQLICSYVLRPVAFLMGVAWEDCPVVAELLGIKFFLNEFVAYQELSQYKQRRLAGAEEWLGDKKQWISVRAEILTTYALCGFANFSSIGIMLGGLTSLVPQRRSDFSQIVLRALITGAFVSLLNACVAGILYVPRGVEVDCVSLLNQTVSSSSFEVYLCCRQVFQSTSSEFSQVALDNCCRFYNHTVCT
Nature of the test: Transport through CNT1 in rat hepatocytes by oil filtration assay. As to conditions: Hepatocyte.

The target in test [9] is T2, Sodium/nucleoside cotransporter 2 (Rattus norvegicus). Nature of the test: Transport through CNT2 in rat hepatocytes by oil filtration assay pre-incubated with 20 ng/mL rotenone for 15 mins and 2 mM 2-deoxyglucose for 10 mins at 37 degC in Kreb-henseleit buffer. As to conditions: Hepatocyte.
The target is the same in test [10]. Nature of the test: Transport through CNT2 in rat hepatocytes by oil filtration assay pre-incubated with 20 ng/mL rotenone for 15 mins and 2 mM 2-deoxyglucose for 10 mins at 37 degC in presence of sodium ions in Kreb-henseleit buffer containing 100 nM NBMPR. As to conditions: Hepatocyte.
Test [11] deals with T4, Sodium/nucleoside cotransporter 2 (Mus musculus) (UniProt O88627).
T4 sequence (whole entry): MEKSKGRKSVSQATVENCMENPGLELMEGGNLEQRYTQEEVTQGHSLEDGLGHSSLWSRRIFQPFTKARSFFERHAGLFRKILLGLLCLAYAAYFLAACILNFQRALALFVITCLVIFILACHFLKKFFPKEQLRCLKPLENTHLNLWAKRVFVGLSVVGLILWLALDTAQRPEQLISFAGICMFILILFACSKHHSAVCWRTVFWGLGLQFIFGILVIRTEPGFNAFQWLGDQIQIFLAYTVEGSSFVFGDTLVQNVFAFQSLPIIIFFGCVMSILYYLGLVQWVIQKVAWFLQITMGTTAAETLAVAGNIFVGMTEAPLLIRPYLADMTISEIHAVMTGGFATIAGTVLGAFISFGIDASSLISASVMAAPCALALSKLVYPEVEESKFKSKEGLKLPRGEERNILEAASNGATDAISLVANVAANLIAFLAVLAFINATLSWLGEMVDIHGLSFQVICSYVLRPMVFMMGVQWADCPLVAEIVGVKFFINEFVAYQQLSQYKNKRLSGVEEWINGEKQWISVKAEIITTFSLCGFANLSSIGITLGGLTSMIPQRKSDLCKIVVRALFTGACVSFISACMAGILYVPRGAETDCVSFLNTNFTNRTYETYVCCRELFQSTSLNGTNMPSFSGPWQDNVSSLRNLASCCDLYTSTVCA
Nature of the test: Transport through CNT2 in mouse hepatocytes by oil filtration assay pre-incubated with 20 ng/mL rotenone for 15 mins and 2 mM 2-deoxyglucose for 10 mins at 37 degC in Kreb-henseleit buffer. As to conditions: Hepatocyte.

Activity calls are given as the source filed them. No cut-off for these calls is given here.

As to `Nc1ncnc2c1ncn2[C@@H]1O[C@H](CO)[C@@H](O)[C@H]1O`, the result (in test [1]; in the test on Hepatocyte [2]; in the test on Hepatocyte [3]; in test [4]; in the test with Hepatocyte [5]; in test [6]) was inactive. Moreover, the result (in the test with Hepatocyte [7]; in [8]) was inactive.
As for `NC(=O)c1ncn([C@@H]2O[C@H](CO)[C@@H](O)[C@H]2O)n1`, the result (in test [9]; in [1]; with Hepatocyte [3]; in test [6]; in test [10]; in [11]) was Active. In addition, the result in test [8] was Active. For the same molecule, the outcome (in the test with Hepatocyte [2]; in [4]; in the test on Hepatocyte [5]; in the test with Hepatocyte [7]) was inactive.
